# Experiments:
# Type in all cases: cell-based
# HCT116 tumor spheroid = assay: Inhibition of tumor spheroid growth; conditions: equivalent 0.05 µg/mL PTX, 9th day
# Protocol: (§1) MCF-7 cells and HCT116 cells were dispersed in culture medium containing 10% methylcellulose (0.24%, w/v) at a density of around 1 × 10^5 cells/mL. Twenty microliters of the above medium was equably dropped on the lid of a […] cell culture dish and incubated at 37 °C for 24 h. When the tumor spheroids were formed, they were removed to 96-well plates which were pre-coated with agarose. After incubation for 72 h, MCF-7 tumor spheroid was treated with PPP and free PTX at equivalent 0.1 µg/mL PTX and HCT116 tumor spheroid was treated with PPP and free PTX at equivalent 0.05 µg/mL PTX. […] Measured with maximum diameter (dmax) and minimum diameter (dmin), the tumor spheroid volume was calculated by the following equation: V=[…], and the negative control tumor spheroids grew up in culture medium.
# MCF-7 tumor spheroid = assay: Inhibition of tumor spheroid growth; conditions: MCF-7 spheroids, equivalent 0.1 µg/mL PTX, 9th day
# Protocol: as §1
# HCT116 cells = assay: MTT cytotoxicity assay; conditions: Homo sapiens, HCT-116, 72 h, PTX concentration, n = 5
# Protocol: (§2) MCF-7 cells, HCT116 cells, and 4T1 cells were seeded in 96-well plates at a density of 3 × 10^3/well. After 12 h, cancer cells were incubated with free PTX and PPP micelles with a PTX concentration from 0.001 µg/mL to 10 µg/mL in 200 µL culture mediums for 72 h. One hundred microliters of culture medium containing 10 µL MTT (5 mg/mL) was added to each well for another 4 h in the dark. The absorbance was measured at 570 nm by a microplate reader (Flexstation 3, Molecular Devices LLC, Sunnyvale, CA). Comparing treated wells with controlled wells, the cell viability was analyzed as mean ± SD (n = 5). In order to confirm the enzyme responsiveness of AAN between the mPEG and PTP-7, MTT assay was used to indirectly observe the cytotoxicity of PTP-7 cleaved by legumain. One microgram of recombinant mouse legumain (Abcam, Cambridge, UK) was activated in a buffer solution (pH 4.5) which contains 50 mM critic acid, 1 mM DTT, and 1 mM EDTA (Zhou et al., [2017]). Then, PP was dissolved in the legumain solution and incubated at 37 °C for 12 h. Next, culture medium containing 0.1–100 µg/mL of free PTP-7 or legumain treated mPEG-PTP-7 was added to cancer cells. After incubation for 24 h, the cell viability was calculated as above.
# (§3) The cell lines were purchased from China Center for Type Culture Collection (Wuhan, China). MCF-7 and HCT116 cells were cultivated in DMEM and 1640 with 10% FBS and 1% PS. 4T1 cells were cultivated in 1640 containing 1% glutaMAX^TM-1, 1% MEM NEAA, 1% sodium pyruvate, 10% FBS and 1% PS. All cell lines were incubated in incubator at 37℃ and 5% CO2. All qualified mice were purchased from Hangzhou Medical College and fostered in laboratory animals and all animal experiments followed the ethical requirements set by the ethics committee of Zhejiang University of Technology (20210511034).
# MCF-7 cells = assay: MTT cytotoxicity assay; conditions: Homo sapiens, MCF7, 72 h, PTX concentration, n = 5
# Protocol: as §2, §3
# 4T1 cells = assay: MTT cytotoxicity assay; conditions: Mus musculus, 72 h, PTX concentration, n = 5
# Protocol: as §2, §3
structure (smiles),measurement,setting,value
"CC(=O)O[C@H]1C(=O)[C@@]2(C)[C@H]([C@H](OC(=O)c3ccccc3)[C@]3(O)C[C@H](OC(=O)[C@H](O)[C@@H](NC(=O)c4ccccc4)c4ccccc4)C(C)=C1C3(C)C)[C@]1(OC(C)=O)CO[C@@H]1C[C@@H]2O [PTX, Paclitaxel]",inhibition of spheroids (volume),HCT116 tumor spheroid,20.51%
same,inhibition of spheroids (volume),MCF-7 tumor spheroid,47.88%
same,IC50,HCT116 cells,0.006 µg/mL
same,IC50,MCF-7 cells,0.028 µg/mL
same,IC50,4T1 cells,0.01 µg/mL
